Where a name gives a salt, the structure may show the parent alone.
Experiment: Solution state stability of the hemi calcium salt of Formula I at various pH conditions
Type: physicochemical
Protocol: Solution state stability studies were performed on 7-[2-(4-fluorophenyl)-5-isopropyl-3-phenyl-4-[(4-hydroxymethylphenylamino) carbonyl]-pyrrol- 1-yl]-3,5-dihydroxy-heptanoic acid by solubilizing the hemi calcium salt of Formula I at a range of pH conditions and storing the solution for one or two weeks under different temperature conditions.

CC(C)c1c(C(=O)Nc2ccc(CO)cc2)c(-c2ccccc2)c(-c2ccc(F)cc2)n1CCC(O)CC(O)CC(=O)O (centres unmarked) [7-[2-(4-fluorophenyl)-5-isopropyl-3-phenyl-4-[(4-hydroxymethylphenylamino)carbonyl]-pyrrol-1-yl]-3,5-dihydroxy-heptanoic acid]
pH at which the compound is stable in solution (conclusion from Table 1, more particularly pH 4.5 to pH 12): ≥ 4.5

CC(C)c1c(C(=O)Nc2ccc(CO)cc2)c(-c2ccccc2)c(-c2ccc(F)cc2)n1CCC(O)CC(O)CC(=O)O (centres unmarked) [hemi calcium salt of Formula I, 7-[2-(4-fluorophenyl)-5-isopropyl-3-phenyl-4-[(4-hydroxymethylphenylamino)carbonyl]-pyrrol-1-yl]-3,5-dihydroxy-heptanoic acid hemicalcium salt]
Drug Content (pH 2.0 Buffer, 1 week, 2-8 °C): 0.21 mg/mL
Drug Content (pH 2.0 Buffer, 1 week, 25 °C): 0.22 mg/mL
Drug Content (pH 2.0 Buffer, 1 week, 50 °C): 0.14 mg/mL
Drug Content (pH 2.0 Buffer, 2 Weeks, 2-8 °C): 0.19 mg/mL
Drug Content (pH 2.0 Buffer, 2 Weeks, 25 °C): 0.18 mg/mL
Drug Content (pH 2.0 Buffer, 2 Weeks, 50 °C): 0.09 mg/mL
Drug Content (pH 2.0 Buffer, Initial): 0.42 mg/mL
Drug Content (pH 4.5 Buffer, 1 week, 2-8 °C): 0.50 mg/mL
Drug Content (pH 4.5 Buffer, 1 week, 25 °C): 0.50 mg/mL
Drug Content (pH 4.5 Buffer, 1 week, 50 °C): 0.43 mg/mL
Drug Content (pH 4.5 Buffer, 2 Weeks, 2-8 °C): 0.50 mg/mL
Drug Content (pH 4.5 Buffer, 2 Weeks, 25 °C): 0.48 mg/mL
Drug Content (pH 4.5 Buffer, 2 Weeks, 50 °C): 0.38 mg/mL
Drug Content (pH 4.5 Buffer, Initial): 0.51 mg/mL
Drug Content (pH 5.5 Buffer, 1 week, 2-8 °C): 0.50 mg/mL
Drug Content (pH 5.5 Buffer, 1 week, 25 °C): 0.50 mg/mL
Drug Content (pH 5.5 Buffer, 1 week, 50 °C): 0.45 mg/mL
Drug Content (pH 5.5 Buffer, 2 weeks, 2-8 °C): 0.50 mg/mL
Drug Content (pH 5.5 Buffer, 2 weeks, 25 °C): 0.48 mg/mL
Drug Content (pH 5.5 Buffer, 2 weeks, 50 °C): 0.40 mg/mL
Drug Content (pH 5.5 Buffer, Initial): 0.50 mg/mL
Drug Content (pH 7.5 Buffer, 1 week, 2-8 °C): 0.50 mg/mL
Drug Content (pH 7.5 Buffer, 1 week, 25 °C): 0.50 mg/mL
Drug Content (pH 7.5 Buffer, 1 week, 50 °C): 0.45 mg/mL
Drug Content (pH 7.5 Buffer, 2 Weeks, 2-8 °C): 0.49 mg/mL
Drug Content (pH 7.5 Buffer, 2 Weeks, 25 °C): 0.49 mg/mL
Drug Content (pH 7.5 Buffer, 2 Weeks, 50 °C): 0.37 mg/mL
Drug Content (pH 7.5 Buffer, Initial): 0.50 mg/mL
Drug Content (pH 9.0 Buffer, 1 week, 2-8 °C): 0.49 mg/mL
Drug Content (pH 9.0 Buffer, 1 week, 25 °C): 0.49 mg/mL
Drug Content (pH 9.0 Buffer, 1 week, 50 °C): 0.45 mg/mL
Drug Content (pH 9.0 Buffer, 2 Weeks, 2-8 °C): 0.45 mg/mL
Drug Content (pH 9.0 Buffer, 2 Weeks, 25 °C): 0.47 mg/mL
Drug Content (pH 9.0 Buffer, 2 Weeks, 50 °C): 0.42 mg/mL
Drug Content (pH 9.0 Buffer, Initial): 0.49 mg/mL
Drug Content (pH 10.0 Buffer, 1 week, 2-8 °C): 0.49 mg/mL
Drug Content (pH 10.0 Buffer, 1 week, 25 °C): 0.49 mg/mL
Drug Content (pH 10.0 Buffer, 1 week, 50 °C): 0.45 mg/mL
Drug Content (pH 10.0 Buffer, 2 Weeks, 2-8 °C): 0.49 mg/mL
Drug Content (pH 10.0 Buffer, 2 Weeks, 25 °C): 0.47 mg/mL
Drug Content (pH 10.0 Buffer, 2 Weeks, 50 °C): 0.44 mg/mL
Drug Content (pH 10.0 Buffer, Initial): 0.49 mg/mL
Drug Content (pH 12.0 Buffer, 1 week, 2-8 °C): 0.49 mg/mL
Drug Content (pH 12.0 Buffer, 1 week, 25 °C): 0.49 mg/mL
Drug Content (pH 12.0 Buffer, 1 week, 50 °C): 0.45 mg/mL
Drug Content (pH 12.0 Buffer, 2 Weeks, 2-8 °C): 0.49 mg/mL
Drug Content (pH 12.0 Buffer, 2 Weeks, 25 °C): 0.48 mg/mL
Drug Content (pH 12.0 Buffer, 2 Weeks, 50 °C): 0.44 mg/mL
Drug Content (pH 12.0 Buffer, Initial): 0.49 mg/mL
